The kinase profiling compilation of Christmann-Franck et al. (2016)

Tests used:
Experiment in all cases: radiometric filter-binding kinase assay
MAP3K5 (human) = MAP3K5 (human) (UniProt Q99683)
PKN2 (human) = PKN2 (human) (UniProt Q16513)
HIPK3 (human) = HIPK3 (human) (UniProt Q9H422)
LCK (mouse) = conditions: accession and sequence are those of the human protein
EPHA4 (human) = EPHA4 (human) (UniProt P54764)
CSK (human) = CSK (human) (UniProt P41240)
MAP3K9 (human) = MAP3K9 (human) (UniProt P80192)
ROCK2 (rat) = conditions: accession and sequence are those of the human protein
CAMKK2 (human) = CAMKK2 (human) (UniProt Q96RR4)
PRKAA1 or PRKAA2 (rat) = conditions: accession and sequence are those of the human protein
MAPK13 (human) = MAPK13 (human) (UniProt O15264)
MAPK13 (human), sequence (O15264 whole entry, looked up): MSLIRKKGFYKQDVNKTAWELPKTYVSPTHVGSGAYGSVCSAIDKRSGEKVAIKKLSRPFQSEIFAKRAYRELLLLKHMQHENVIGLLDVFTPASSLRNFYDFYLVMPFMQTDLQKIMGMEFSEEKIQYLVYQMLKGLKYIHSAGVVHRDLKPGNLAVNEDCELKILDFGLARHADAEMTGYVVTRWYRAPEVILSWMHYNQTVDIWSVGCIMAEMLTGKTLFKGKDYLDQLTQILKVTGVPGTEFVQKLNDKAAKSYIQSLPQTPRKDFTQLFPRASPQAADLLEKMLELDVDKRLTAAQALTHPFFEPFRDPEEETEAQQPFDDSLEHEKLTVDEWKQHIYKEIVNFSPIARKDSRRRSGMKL

PAK6 (human) = PAK6 (human) (UniProt Q9NQU5)
MARK4 (human) = MARK4 (human) (UniProt Q96L34)
PRKCZ (human) = PRKCZ (human) (UniProt Q05513)
PRKCZ (human), sequence (Q05513 whole entry, looked up): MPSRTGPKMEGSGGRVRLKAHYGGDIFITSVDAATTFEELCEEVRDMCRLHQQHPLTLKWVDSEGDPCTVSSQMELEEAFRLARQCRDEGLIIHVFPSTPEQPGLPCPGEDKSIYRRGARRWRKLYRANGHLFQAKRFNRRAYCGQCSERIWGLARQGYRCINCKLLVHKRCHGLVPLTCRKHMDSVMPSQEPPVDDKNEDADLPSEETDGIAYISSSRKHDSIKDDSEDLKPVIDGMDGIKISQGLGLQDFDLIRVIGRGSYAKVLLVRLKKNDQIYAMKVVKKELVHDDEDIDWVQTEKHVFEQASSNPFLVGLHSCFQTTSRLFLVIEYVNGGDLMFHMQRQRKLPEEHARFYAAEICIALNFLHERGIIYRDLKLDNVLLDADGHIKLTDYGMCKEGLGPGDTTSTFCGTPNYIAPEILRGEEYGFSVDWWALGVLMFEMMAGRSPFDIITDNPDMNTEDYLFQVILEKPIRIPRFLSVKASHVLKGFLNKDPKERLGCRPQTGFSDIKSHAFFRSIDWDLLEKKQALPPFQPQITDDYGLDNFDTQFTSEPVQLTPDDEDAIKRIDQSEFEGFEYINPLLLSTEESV

MAPK1 (human) = MAPK1 (human) (UniProt P28482)
BRSK2 (human) = BRSK2 (human) (UniProt Q8IWQ3)
DAPK1 (human) = DAPK1 (human) (UniProt P53355)
PLK1 (human) = PLK1 (human) (UniProt P53350)
YES1 (human) = YES1 (human) (UniProt P07947)
MAPK11 (human) = MAPK11 (human) (UniProt Q15759)
MAP3K7 TAB1 (human) = MAP3K7 TAB1 (human) (UniProt Q15750+O43318)
HIPK1 (human) = HIPK1 (human) (UniProt Q86Z02)
IGF1R (human) = IGF1R (human) (UniProt P08069)
IGF1R (human), sequence (P08069 whole entry, looked up): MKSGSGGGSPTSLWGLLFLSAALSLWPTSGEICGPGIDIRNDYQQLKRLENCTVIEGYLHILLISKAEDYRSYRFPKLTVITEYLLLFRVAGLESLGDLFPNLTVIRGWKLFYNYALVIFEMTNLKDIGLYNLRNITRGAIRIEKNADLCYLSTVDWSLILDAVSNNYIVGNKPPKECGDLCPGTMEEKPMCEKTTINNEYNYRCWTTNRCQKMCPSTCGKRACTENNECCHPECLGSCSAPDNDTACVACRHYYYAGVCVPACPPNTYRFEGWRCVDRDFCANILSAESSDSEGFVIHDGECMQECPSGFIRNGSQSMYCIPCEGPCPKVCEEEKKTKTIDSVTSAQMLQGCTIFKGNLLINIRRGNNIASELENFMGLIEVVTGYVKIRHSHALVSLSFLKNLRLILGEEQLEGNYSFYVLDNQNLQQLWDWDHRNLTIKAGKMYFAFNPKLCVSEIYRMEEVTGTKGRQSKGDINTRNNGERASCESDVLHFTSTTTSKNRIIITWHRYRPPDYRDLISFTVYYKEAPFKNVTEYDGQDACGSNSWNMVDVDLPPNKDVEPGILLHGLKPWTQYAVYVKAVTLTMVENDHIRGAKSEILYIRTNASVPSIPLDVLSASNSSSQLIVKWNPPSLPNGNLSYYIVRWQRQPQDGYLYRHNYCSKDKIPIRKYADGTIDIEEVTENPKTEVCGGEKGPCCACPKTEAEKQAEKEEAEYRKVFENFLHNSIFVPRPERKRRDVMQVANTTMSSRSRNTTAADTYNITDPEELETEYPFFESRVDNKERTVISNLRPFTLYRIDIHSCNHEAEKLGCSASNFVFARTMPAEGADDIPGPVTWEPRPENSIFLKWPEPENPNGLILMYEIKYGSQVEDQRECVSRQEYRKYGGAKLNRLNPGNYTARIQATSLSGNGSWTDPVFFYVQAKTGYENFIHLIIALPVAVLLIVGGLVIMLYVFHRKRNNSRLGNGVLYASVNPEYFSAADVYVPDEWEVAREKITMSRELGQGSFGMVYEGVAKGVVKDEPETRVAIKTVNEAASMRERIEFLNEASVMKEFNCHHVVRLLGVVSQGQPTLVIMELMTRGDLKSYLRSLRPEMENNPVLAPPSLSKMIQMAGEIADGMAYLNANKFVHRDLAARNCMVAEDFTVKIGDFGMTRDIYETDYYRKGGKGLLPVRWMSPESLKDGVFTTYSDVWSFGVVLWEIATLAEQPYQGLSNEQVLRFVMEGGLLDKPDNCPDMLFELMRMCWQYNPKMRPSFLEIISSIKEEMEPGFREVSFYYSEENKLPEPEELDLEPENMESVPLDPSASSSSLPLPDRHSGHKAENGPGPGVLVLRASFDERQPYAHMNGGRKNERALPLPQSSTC

EPHB4 (human) = EPHB4 (human) (UniProt P54760)
EPHB4 (human), sequence (P54760 whole entry, looked up): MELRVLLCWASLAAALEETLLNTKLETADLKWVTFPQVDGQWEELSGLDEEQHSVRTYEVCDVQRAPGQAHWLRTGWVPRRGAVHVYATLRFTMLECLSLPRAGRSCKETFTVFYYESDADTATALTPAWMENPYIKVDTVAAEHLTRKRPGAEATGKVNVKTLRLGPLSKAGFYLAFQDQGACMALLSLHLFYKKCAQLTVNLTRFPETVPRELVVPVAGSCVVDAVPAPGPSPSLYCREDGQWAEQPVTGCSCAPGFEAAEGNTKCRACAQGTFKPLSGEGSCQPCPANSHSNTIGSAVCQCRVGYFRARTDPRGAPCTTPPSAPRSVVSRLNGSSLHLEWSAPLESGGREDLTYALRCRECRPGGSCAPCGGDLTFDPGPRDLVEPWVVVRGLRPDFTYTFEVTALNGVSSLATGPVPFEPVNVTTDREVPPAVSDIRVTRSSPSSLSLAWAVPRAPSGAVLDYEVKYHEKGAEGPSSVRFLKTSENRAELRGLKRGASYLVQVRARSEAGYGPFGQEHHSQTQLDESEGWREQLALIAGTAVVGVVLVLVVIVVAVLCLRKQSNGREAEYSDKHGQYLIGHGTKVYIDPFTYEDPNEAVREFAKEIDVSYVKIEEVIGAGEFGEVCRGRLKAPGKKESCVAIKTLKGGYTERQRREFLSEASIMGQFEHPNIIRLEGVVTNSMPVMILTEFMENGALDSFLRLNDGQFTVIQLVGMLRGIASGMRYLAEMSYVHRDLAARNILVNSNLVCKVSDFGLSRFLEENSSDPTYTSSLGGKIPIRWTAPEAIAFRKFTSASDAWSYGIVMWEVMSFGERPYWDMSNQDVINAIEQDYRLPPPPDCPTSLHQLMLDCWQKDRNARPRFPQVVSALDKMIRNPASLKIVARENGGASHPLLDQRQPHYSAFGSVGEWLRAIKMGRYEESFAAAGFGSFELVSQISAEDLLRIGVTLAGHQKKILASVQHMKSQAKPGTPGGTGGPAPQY

PAK7 (human) = PAK7 (human) (UniProt Q9P286)
PAK7 (human), sequence (Q9P286 whole entry, looked up): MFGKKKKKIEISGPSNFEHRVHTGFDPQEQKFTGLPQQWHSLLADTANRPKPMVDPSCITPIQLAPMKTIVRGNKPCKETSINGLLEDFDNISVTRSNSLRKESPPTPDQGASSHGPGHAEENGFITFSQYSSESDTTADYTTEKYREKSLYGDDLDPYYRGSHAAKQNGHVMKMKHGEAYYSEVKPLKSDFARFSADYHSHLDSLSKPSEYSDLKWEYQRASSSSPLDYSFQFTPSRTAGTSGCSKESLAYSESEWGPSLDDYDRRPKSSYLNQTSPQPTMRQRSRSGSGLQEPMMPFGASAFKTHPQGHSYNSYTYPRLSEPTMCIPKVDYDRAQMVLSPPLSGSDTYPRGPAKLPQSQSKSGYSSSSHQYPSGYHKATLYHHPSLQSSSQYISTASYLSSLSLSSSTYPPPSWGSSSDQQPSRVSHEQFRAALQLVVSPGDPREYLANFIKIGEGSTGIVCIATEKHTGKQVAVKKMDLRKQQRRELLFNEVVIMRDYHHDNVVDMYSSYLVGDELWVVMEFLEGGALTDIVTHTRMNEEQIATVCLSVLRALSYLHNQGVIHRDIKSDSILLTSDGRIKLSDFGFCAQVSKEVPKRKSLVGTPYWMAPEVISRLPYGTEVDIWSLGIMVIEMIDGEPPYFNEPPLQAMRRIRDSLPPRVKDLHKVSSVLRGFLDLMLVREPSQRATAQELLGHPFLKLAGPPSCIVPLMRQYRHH

GSK3B (human) = GSK3B (human) (UniProt P49841)
RPS6KA5 KD1 KD2 (human) = RPS6KA5 KD1 KD2 (human) (UniProt O75582)
EPHB1 (human) = EPHB1 (human) (UniProt P54762)
EPHB1 (human), sequence (P54762 whole entry, looked up): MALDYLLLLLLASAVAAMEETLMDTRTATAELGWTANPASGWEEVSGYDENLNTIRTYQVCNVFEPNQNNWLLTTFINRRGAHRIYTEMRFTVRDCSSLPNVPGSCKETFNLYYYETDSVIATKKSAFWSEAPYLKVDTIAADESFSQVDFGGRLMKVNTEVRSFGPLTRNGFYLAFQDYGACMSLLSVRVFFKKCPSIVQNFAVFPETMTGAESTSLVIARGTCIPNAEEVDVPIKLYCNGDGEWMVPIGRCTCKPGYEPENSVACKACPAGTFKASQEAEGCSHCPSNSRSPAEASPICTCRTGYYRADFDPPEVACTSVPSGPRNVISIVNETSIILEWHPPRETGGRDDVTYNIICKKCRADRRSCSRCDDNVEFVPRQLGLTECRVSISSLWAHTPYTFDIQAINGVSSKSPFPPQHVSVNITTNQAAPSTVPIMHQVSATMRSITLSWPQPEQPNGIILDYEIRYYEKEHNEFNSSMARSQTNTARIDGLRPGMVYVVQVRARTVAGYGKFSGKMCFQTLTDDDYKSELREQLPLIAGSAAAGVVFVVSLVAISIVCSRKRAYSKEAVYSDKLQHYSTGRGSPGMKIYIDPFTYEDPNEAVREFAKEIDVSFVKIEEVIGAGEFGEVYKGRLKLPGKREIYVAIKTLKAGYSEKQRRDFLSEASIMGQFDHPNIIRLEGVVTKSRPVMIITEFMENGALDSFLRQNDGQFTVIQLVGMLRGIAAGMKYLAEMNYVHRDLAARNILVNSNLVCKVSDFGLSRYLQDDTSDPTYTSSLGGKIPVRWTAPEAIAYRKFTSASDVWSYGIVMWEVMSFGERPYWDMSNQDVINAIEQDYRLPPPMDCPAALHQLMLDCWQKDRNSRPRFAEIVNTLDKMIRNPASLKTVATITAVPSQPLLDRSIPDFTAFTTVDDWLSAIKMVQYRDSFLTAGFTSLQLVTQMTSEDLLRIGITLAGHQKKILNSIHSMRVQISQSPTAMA

SYK (human) = SYK (human) (UniProt P43405)
HIPK2 (human) = HIPK2 (human) (UniProt Q9H2X6); conditions: compound 10.0 µM
INSR (human) = INSR (human) (UniProt P06213)
MAP3K1 (human) = MAP3K1 (human) (UniProt Q13233)
EPHB3 (human) = EPHB3 (human) (UniProt P54753)
[1] = system: AKT2 (human), P31751 [S474D]

residual activity (MAP3K5 (human); compound 0.1 µM): 103%
residual activity (MAP3K5 (human); compound 1.0 µM): 128%
residual activity (MAP3K5 (human); compound 10.0 µM): 111%
residual activity (PKN2 (human); compound 0.1 µM): 109%
residual activity (PKN2 (human); compound 1.0 µM): 100%
residual activity (PKN2 (human); compound 10.0 µM): 90%
residual activity (HIPK3 (human); compound 0.1 µM): 100%
residual activity (HIPK3 (human); compound 1.0 µM): 123%
residual activity (HIPK3 (human); compound 10.0 µM): 110%
residual activity (LCK (mouse); compound 0.1 µM): 22%
residual activity (LCK (mouse); compound 10.0 µM): 9%
residual activity (EPHA4 (human); compound 1.0 µM): 92%
residual activity (EPHA4 (human); compound 10.0 µM): 45%
residual activity (CSK (human); compound 0.1 µM): 25%
residual activity (CSK (human); compound 1.0 µM): 15%
residual activity (CSK (human); compound 10.0 µM): 3%
residual activity (MAP3K9 (human); compound 0.1 µM): 104%
residual activity (MAP3K9 (human); compound 1.0 µM): 89%
residual activity (MAP3K9 (human); compound 10.0 µM): 27%
residual activity (ROCK2 (rat); compound 0.1 µM): 93%
residual activity (ROCK2 (rat); compound 1.0 µM): 111%
residual activity (ROCK2 (rat); compound 10.0 µM): 69%
residual activity (CAMKK2 (human); compound 0.1 µM): 86%
residual activity (CAMKK2 (human); compound 1.0 µM): 109%
residual activity (CAMKK2 (human); compound 10.0 µM): 80%
residual activity (PRKAA1 or PRKAA2 (rat); compound 0.1 µM): 88%
residual activity (PRKAA1 or PRKAA2 (rat); compound 1.0 µM): 101%
residual activity (PRKAA1 or PRKAA2 (rat); compound 10.0 µM): 78%
residual activity (MAPK13 (human); compound 0.1 µM): 88%
residual activity (MAPK13 (human); compound 1.0 µM): 104%
residual activity (MAPK13 (human); compound 10.0 µM): 80%
residual activity (PAK6 (human); compound 0.1 µM): 95%
residual activity (PAK6 (human); compound 1.0 µM): 97%
residual activity (PAK6 (human); compound 10.0 µM): 82%
residual activity (MARK4 (human); compound 0.1 µM): 111%
residual activity (MARK4 (human); compound 1.0 µM): 114%
residual activity (MARK4 (human); compound 10.0 µM): 80%
residual activity (PRKCZ (human); compound 0.1 µM): 90%
residual activity (PRKCZ (human); compound 1.0 µM): 98%
residual activity (PRKCZ (human); compound 10.0 µM): 81%
residual activity (MAPK1 (human); compound 0.1 µM): 94%
residual activity (MAPK1 (human); compound 1.0 µM): 99%
residual activity (MAPK1 (human); compound 10.0 µM): 90%
residual activity (BRSK2 (human); compound 0.1 µM): 100%
residual activity (BRSK2 (human); compound 1.0 µM): 91%
residual activity (BRSK2 (human); compound 10.0 µM): 61%
residual activity (DAPK1 (human); compound 0.1 µM): 95%
residual activity (DAPK1 (human); compound 1.0 µM): 95%
residual activity (DAPK1 (human); compound 10.0 µM): 84%
residual activity (PLK1 (human); compound 0.1 µM): 88%
residual activity (PLK1 (human); compound 1.0 µM): 95%
residual activity (PLK1 (human); compound 10.0 µM): 76%
residual activity (YES1 (human); compound 0.1 µM): 20%
residual activity (YES1 (human); compound 1.0 µM): 16%
residual activity (YES1 (human); compound 10.0 µM): 13%
residual activity (MAPK11 (human); compound 1.0 µM): 103%
residual activity (MAPK11 (human); compound 10.0 µM): 68%
residual activity (MAP3K7 TAB1 (human); compound 0.1 µM): 102%
residual activity (MAP3K7 TAB1 (human); compound 1.0 µM): 106%
residual activity (MAP3K7 TAB1 (human); compound 10.0 µM): 66%
residual activity (HIPK1 (human); compound 0.1 µM): 75%
residual activity (HIPK1 (human); compound 1.0 µM): 87%
residual activity (HIPK1 (human); compound 10.0 µM): 75%
residual activity (IGF1R (human); compound 0.1 µM): 95%
residual activity (IGF1R (human); compound 1.0 µM): 93%
residual activity (IGF1R (human); compound 10.0 µM): 63%
residual activity (EPHB4 (human); compound 0.1 µM): 83%
residual activity (EPHB4 (human); compound 1.0 µM): 74%
residual activity (EPHB4 (human); compound 10.0 µM): 39%
residual activity (PAK7 (human); compound 0.1 µM): 93%
residual activity (PAK7 (human); compound 1.0 µM): 97%
residual activity (PAK7 (human); compound 10.0 µM): 50%
residual activity (GSK3B (human); compound 0.1 µM): 104%
residual activity (GSK3B (human); compound 1.0 µM): 95%
residual activity (GSK3B (human); compound 10.0 µM): 75%
residual activity (RPS6KA5 KD1 KD2 (human); compound 0.1 µM): 94%
residual activity (RPS6KA5 KD1 KD2 (human); compound 1.0 µM): 101%
residual activity (RPS6KA5 KD1 KD2 (human); compound 10.0 µM): 55%
residual activity (EPHB1 (human); compound 0.1 µM): 72%
residual activity (EPHB1 (human); compound 1.0 µM): 90%
residual activity (EPHB1 (human); compound 10.0 µM): 86%
residual activity (SYK (human); compound 0.1 µM): 90%
residual activity (SYK (human); compound 1.0 µM): 100%
residual activity (SYK (human); compound 10.0 µM): 52%
residual activity (HIPK2 (human)): 66%
residual activity (INSR (human); compound 0.1 µM): 77%
residual activity (INSR (human); compound 10.0 µM): 31%
residual activity (MAP3K1 (human); compound 0.1 µM): 106%
residual activity (MAP3K1 (human); compound 1.0 µM): 103%
residual activity (MAP3K1 (human); compound 10.0 µM): 56%
residual activity (EPHB3 (human); compound 0.1 µM): 99%
residual activity (EPHB3 (human); compound 1.0 µM): 96%
residual activity (EPHB3 (human); compound 10.0 µM): 51%
residual activity ([1]; compound 0.1 µM): 80%
residual activity ([1]; compound 1.0 µM): 93%
residual activity ([1]; compound 10.0 µM): 71%
SMILES: C=CC(=O)N1CCC[C@@H](n2nc(-c3ccc(Oc4ccccc4)cc3)c3c(N)ncnc32)C1
